Source: the supplement of paper PMC4862054

How the values were obtained:
BT-549 [1] = settings: 72 h
Outline: (§1)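 Viability of breast cancer cell lines was measured with CellTiter-Blue after 72 h of incubation on compound-loaded 384-well plates. Cells were seeded in 20 µl onto compound dissolved in 5 µl medium, and 2.5 µl reagent was added for 2 h at 37 °C before reading at 560/590 nm. EC50 was fitted from percent-inhibition dose-response data censored at the highest concentration, normalised per plate to vehicle and a positive kill control, with zero drug sensitivity score rows dropped.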

CAL-120 [2] = settings: 72 h
Outline: as §1

SK-BR-3 [3] = settings: 72 h
Outline: as §1

HCC1937 [4] = settings: 72 h
Outline: as §1

MDA-MB-436 [5] = settings: 72 h
Outline: as §1

HCC1143 = assay: normalised viability (% of control), CellTiter-Blue; higher = more viable cells (about 100 = DMSO control); settings: incubation time: 72 h
Outline: (§2)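 Seeded at 20 µl suspension per well onto compound-loaded 384-well plates, breast cancer cell lines were incubated 72 h. CellTiter-Blue fluorescence at 560/590 nm was then read, with each plate normalised to vehicle (100) and a positive kill control (0). Normalised viability is reported at a single listed concentration of the series.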

BT-549 [6] = assay: as above; settings: incubation time: 72 h
Outline: as §2

HCC1599 = assay: as above; settings: incubation time: 72 h
Outline: as §2

CAL-120 [7] = assay: as above; settings: incubation time: 72 h
Outline: as §2

CAL-51 = assay: as above; settings: incubation time: 72 h
Outline: as §2

MDA-MB-468 = assay: as above; settings: incubation time: 72 h
Outline: as §2

MDA-MB-453 = assay: as above; settings: incubation time: 72 h
Outline: as §2

Hs578T = assay: as above; settings: incubation time: 72 h
Outline: as §2

SK-BR-3 [8] = assay: as above; settings: incubation time: 72 h
Outline: as §2

BT-474 = assay: as above; settings: incubation time: 72 h
Outline: as §2

DU-4475 = assay: as above; settings: incubation time: 72 h
Outline: as §2

MDA-MB-231 = assay: as above; settings: incubation time: 72 h
Outline: as §2

HDQ-P1 = assay: as above; settings: incubation time: 72 h
Outline: as §2

HCC1937 [9] = assay: as above; settings: incubation time: 72 h
Outline: as §2

CAL-85-1 = assay: as above; settings: incubation time: 72 h
Outline: as §2

CAL-148 = assay: as above; settings: incubation time: 72 h
Outline: as §2

MDA-MB-436 [10] = assay: as above; settings: incubation time: 72 h
Outline: as §2

MFM-223 = assay: as above; settings: incubation time: 72 h
Outline: as §2

## CN1CC[C@H](c2c(O)cc(O)c3c(=O)cc(-c4ccccc4Cl)oc23)[C@H](O)C1 [Alvocidib]
BT-549 [1]
  EC50, CellTiter-Blue viability: 298 nM
CAL-120 [2]
  EC50, CellTiter-Blue viability: 98.2 nM
SK-BR-3 [3]
  EC50, CellTiter-Blue viability: 79.7 nM
HCC1937 [4]
  EC50, CellTiter-Blue viability: 133 nM
MDA-MB-436 [5]
  EC50, CellTiter-Blue viability: 330 nM
HCC1143; 10 nM
  normalised viability: 76.5%
HCC1143; 1000 nM
  normalised viability: 14.1%
HCC1143; 10000 nM
  normalised viability: 15.1%
BT-549 [6]; 10 nM
  normalised viability: 92%
BT-549 [6]; 1000 nM
  normalised viability: 9%
BT-549 [6]; 10000 nM
  normalised viability: 7.78%
HCC1599; 10 nM
  normalised viability: 124%
HCC1599; 1000 nM
  normalised viability: 19.6%
HCC1599; 10000 nM
  normalised viability: 21.9%
CAL-120 [7]; 10 nM
  normalised viability: 67.7%
CAL-120 [7]; 1000 nM
  normalised viability: 10.7%
CAL-120 [7]; 10000 nM
  normalised viability: 11.1%
CAL-51; 3 nM
  normalised viability: 109%
CAL-51; 30 nM
  normalised viability: 92.5%
CAL-51; 100 nM
  normalised viability: 78.1%
MDA-MB-468; 10 nM
  normalised viability: 108%
MDA-MB-468; 1000 nM
  normalised viability: 10.4%
MDA-MB-468; 10000 nM
  normalised viability: 5.45%
MDA-MB-453; 3 nM
  normalised viability: 104%
MDA-MB-453; 30 nM
  normalised viability: 91.4%
MDA-MB-453; 100 nM
  normalised viability: 73%
Hs578T; 10 nM
  normalised viability: 90.8%
Hs578T; 1000 nM
  normalised viability: 4.18%
Hs578T; 10000 nM
  normalised viability: 2.76%
SK-BR-3 [8]; 10 nM
  normalised viability: 88.5%
SK-BR-3 [8]; 1000 nM
  normalised viability: 4.29%
SK-BR-3 [8]; 10000 nM
  normalised viability: 5.99%
BT-474; 10 nM
  normalised viability: 102%
BT-474; 1000 nM
  normalised viability: 23%
BT-474; 10000 nM
  normalised viability: 26.6%
DU-4475; 3 nM
  normalised viability: 90.7%
DU-4475; 30 nM
  normalised viability: 79.2%
DU-4475; 100 nM
  normalised viability: 78.6%
MDA-MB-231; 10 nM
  normalised viability: 88.2%
MDA-MB-231; 1000 nM
  normalised viability: 7.07%
MDA-MB-231; 10000 nM
  normalised viability: 6.37%
HDQ-P1; 3 nM
  normalised viability: 88.6%
HDQ-P1; 30 nM
  normalised viability: 87.6%
HDQ-P1; 100 nM
  normalised viability: 84.2%
HCC1937 [9]; 10 nM
  normalised viability: 79.5%
HCC1937 [9]; 1000 nM
  normalised viability: 15%
HCC1937 [9]; 10000 nM
  normalised viability: 18.7%
CAL-85-1; 3 nM
  normalised viability: 82.7%
CAL-85-1; 30 nM
  normalised viability: 79.9%
CAL-85-1; 100 nM
  normalised viability: 76.6%
CAL-148; 3 nM
  normalised viability: 86%
CAL-148; 30 nM
  normalised viability: 89.6%
CAL-148; 100 nM
  normalised viability: 70.8%
MDA-MB-436 [10]; 10 nM
  normalised viability: 91%
MDA-MB-436 [10]; 1000 nM
  normalised viability: 14.9%
MDA-MB-436 [10]; 10000 nM
  normalised viability: 15.8%
MFM-223; 10 nM
  normalised viability: 87.3%
MFM-223; 1000 nM
  normalised viability: 8.79%
MFM-223; 10000 nM
  normalised viability: 8.79%

## Nc1nc(Cl)nc2c1ncn2[C@H]1C[C@H](O)[C@@H](CO)O1 [Cladribine]
BT-549 [1]
  EC50, CellTiter-Blue viability: 839 nM
CAL-120 [2]
  EC50, CellTiter-Blue viability: 923 nM
SK-BR-3 [3]
  EC50, CellTiter-Blue viability: 884 nM
HCC1937 [4]
  EC50, CellTiter-Blue viability: 73.4 nM
MDA-MB-436 [5]
  EC50, CellTiter-Blue viability: 799 nM
HCC1143; 1 nM
  normalised viability: 91.9%
HCC1143; 100 nM
  normalised viability: 87.6%
HCC1143; 1000 nM
  normalised viability: 72.2%
BT-549 [6]; 1 nM
  normalised viability: 82.5%
BT-549 [6]; 100 nM
  normalised viability: 86.4%
BT-549 [6]; 1000 nM
  normalised viability: 45.8%
HCC1599; 1 nM
  normalised viability: 97.8%
HCC1599; 100 nM
  normalised viability: 83%
HCC1599; 1000 nM
  normalised viability: 91.7%
CAL-120 [7]; 1 nM
  normalised viability: 87.2%
CAL-120 [7]; 100 nM
  normalised viability: 79.7%
CAL-120 [7]; 1000 nM
  normalised viability: 48.1%
CAL-51; 0.3 nM
  normalised viability: 119%
CAL-51; 3 nM
  normalised viability: 116%
CAL-51; 10 nM
  normalised viability: 114%
MDA-MB-468; 1 nM
  normalised viability: 99.6%
MDA-MB-468; 100 nM
  normalised viability: 94.4%
MDA-MB-468; 1000 nM
  normalised viability: 82.8%
MDA-MB-453; 0.3 nM
  normalised viability: 126%
MDA-MB-453; 3 nM
  normalised viability: 97.4%
MDA-MB-453; 10 nM
  normalised viability: 89.7%
Hs578T; 1 nM
  normalised viability: 111%
Hs578T; 100 nM
  normalised viability: 104%
Hs578T; 1000 nM
  normalised viability: 105%
SK-BR-3 [8]; 1 nM
  normalised viability: 92.6%
SK-BR-3 [8]; 100 nM
  normalised viability: 99.7%
SK-BR-3 [8]; 1000 nM
  normalised viability: 42.4%
BT-474; 1 nM
  normalised viability: 112%
BT-474; 100 nM
  normalised viability: 102%
BT-474; 1000 nM
  normalised viability: 103%
DU-4475; 0.3 nM
  normalised viability: 106%
DU-4475; 3 nM
  normalised viability: 104%
DU-4475; 10 nM
  normalised viability: 102%
MDA-MB-231; 1 nM
  normalised viability: 101%
MDA-MB-231; 100 nM
  normalised viability: 67%
MDA-MB-231; 1000 nM
  normalised viability: 71.9%
HDQ-P1; 0.3 nM
  normalised viability: 113%
HDQ-P1; 3 nM
  normalised viability: 101%
HDQ-P1; 10 nM
  normalised viability: 109%
HCC1937 [9]; 1 nM
  normalised viability: 91.8%
HCC1937 [9]; 100 nM
  normalised viability: 56.8%
HCC1937 [9]; 1000 nM
  normalised viability: 43.4%
CAL-85-1; 0.3 nM
  normalised viability: 102%
CAL-85-1; 3 nM
  normalised viability: 101%
CAL-85-1; 10 nM
  normalised viability: 105%
CAL-148; 0.3 nM
  normalised viability: 91.9%
CAL-148; 3 nM
  normalised viability: 109%
CAL-148; 10 nM
  normalised viability: 93%
MDA-MB-436 [10]; 1 nM
  normalised viability: 101%
MDA-MB-436 [10]; 100 nM
  normalised viability: 90%
MDA-MB-436 [10]; 1000 nM
  normalised viability: 65.8%
MFM-223; 1 nM
  normalised viability: 86.2%
MFM-223; 100 nM
  normalised viability: 86.7%
MFM-223; 1000 nM
  normalised viability: 90%
